The supplement of paper PMC12513837

What follows are test systems tested with CC(=O)N1CCc2c(c(N3CCCc4cc(-c5cnn(C)c5)c(C(F)F)cc43)nn2C2CCC(CN3CCN(c4ccc5c(c4)C(=O)N(C4CCC(=O)NC4=O)C5=O)CC3)CC2)C1 [CBPD-409] (assay: AUC of viability dose-response curve (relative to vehicle, 8 doses up to 10 µM) (fraction); higher = less sensitive (more viable); extreme values may be limits of the assay).
Description: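 PRISM multiplexed pooled barcoded cell line viability screen at the Broad Institute, 887 cancer cell lines treated with CBPD-409 (p300/CBP PROTAC degrader) at 8 concentrations in threefold dilution, top dose 10 µM. The read-out is the area under the dose-response curve of relative viability versus vehicle (n=3). AUC < 0.3 is called strongly sensitive and AUC > 0.8 resistant.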
For UMUC10_URINARY_TRACT, the “AUC of viability dose-response curve” value was 0.511. For UMUC11_URINARY_TRACT, the “AUC of viability dose-response curve” value was 0.736. In the case of UMUC13_URINARY_TRACT, the “AUC of viability dose-response curve” value was 0.199. For UO31_KIDNEY, the “AUC of viability dose-response curve” value was 1. For UPCISCC072_UPPER_AERODIGESTIVE_TRACT, the “AUC of viability dose-response curve” value was 0.625. With UPCISCC111_UPPER_AERODIGESTIVE_TRACT the “AUC of viability dose-response curve” value was 1. With UPCISCC116_UPPER_AERODIGESTIVE_TRACT the “AUC of viability dose-response curve” value was 0.827. In the case of UW228_CENTRAL_NERVOUS_SYSTEM, the “AUC of viability dose-response curve” value was 1. In the case of VAESBJ_SOFT_TISSUE, the “AUC of viability dose-response curve” value was 0.8. VAL_HAEMATOPOIETIC_AND_LYMPHOID_TISSUE was tested, and the “AUC of viability dose-response curve” value was 0.56. In the case of VMCUB1_URINARY_TRACT, the “AUC of viability dose-response curve” value was 0.443. With VMRCRCW_KIDNEY the “AUC of viability dose-response curve” value was 0.631. In the case of VMRCRCZ_KIDNEY, the “AUC of viability dose-response curve” value was 0.584. With “WAOSEL_HAEMATOPOIETIC_AND_LYMPHOID_TISSUE” the “AUC of viability dose-response curve” value was 0.826. WERIRB1_AUTONOMIC_GANGLIA was tested, and the “AUC of viability dose-response curve” value was 1. With WM88_SKIN the “AUC of viability dose-response curve” value was 0.893. For WM793_SKIN, the “AUC of viability dose-response curve” value was 0.949. For WM983B_SKIN, the “AUC of viability dose-response curve” value was 0.774. In the case of WM1799_SKIN, the “AUC of viability dose-response curve” value was 0.639. With WM2664_SKIN the “AUC of viability dose-response curve” value was 0.988. With “WSUDLCL2_HAEMATOPOIETIC_AND_LYMPHOID_TISSUE” the “AUC of viability dose-response curve” value was 0.505. In the case of YAPC_PANCREAS, the “AUC of viability dose-response curve” value was 1. In the case of YD8_UPPER_AERODIGESTIVE_TRACT, the “AUC of viability dose-response curve” value was 0.641. For YD10B_UPPER_AERODIGESTIVE_TRACT, the “AUC of viability dose-response curve” value was 1. In the case of YD15_SALIVARY_GLAND, the “AUC of viability dose-response curve” value was 0.397. YD38_UPPER_AERODIGESTIVE_TRACT was tested, and the “AUC of viability dose-response curve” value was 0.559. For YH13_CENTRAL_NERVOUS_SYSTEM, the “AUC of viability dose-response curve” value was 0.75. YKG1_CENTRAL_NERVOUS_SYSTEM was tested, and the “AUC of viability dose-response curve” value was 0.584. For YSCCC_BILIARY_TRACT, the “AUC of viability dose-response curve” value was 0.853. With ZR751_BREAST the “AUC of viability dose-response curve” value was 0.411.
